Results published in patent US9978954B2, “Benzobis (thiadiazole) derivative, ink comprising same, and organic electronic device comprising same” (UBE INDUSTRIES, LTD., priority 2013, dated 2018).

Assay: Evaluation of solubility in organic solvents (visual observation of complete dissolution)
Format: physicochemical
Experimental: [Evaluation of Solubility]
The evaluation of the solubility of the synthesized compound was conducted by the following method.
About 2-3 mg of the compound was precisely weighed, and each solvent was added to the compound such that a predetermined concentration of the solute (0.5 wt %, 0.3 wt %, 0.2 wt %, 0.1 wt %, 0.05 wt %, or 0.03 wt %) was reached. The resultant mixture was stirred for 30 minutes at a predetermined temperature, and then it was evaluated by visual appearance observation whether or not the solute (synthesized compound) was completely dissolved in the solvent, which was the result of the evaluation of the solubility. As the solvent, chloroform (boiling point 61° C.), toluene (boiling point 111° C.), xylene (boiling point 144° C.), mesitylene (boiling point 165° C.), chlorobenzene (boiling point 130° C.), para-chlorotoluene (boiling point 162° C.), and ortho-dichlorobenzene (boiling point 181° C.) were used.

[1] = chloroform, 25° C. (room temperature)

Molecule: CCCCCCc1cc(-c2ccc(-c3c4c(c(-c5ccc(-c6ccc(C(F)(F)F)c(CCCCCC)c6)s5)c5nsnc35)N=S=N4)s2)ccc1C(F)(F)F [Compound (C10), 4,8-bis[5-(3-hexyl-4-(trifluoromethyl)phenyl)thiophene-2-yl]benzo[1,2-c:4,5-c′]bis[1,2,5]thiadiazole]
- solubility (solute concentration completely dissolved) (chlorobenzene, 25° C.): ≥ 0.03 wt %
- solubility (solute concentration completely dissolved) (chlorobenzene, 60° C.): ≥ 0.1 wt %
- solubility (solute concentration completely dissolved) (chlorobenzene, 80° C.): ≥ 0.3 wt %
- solubility (solute concentration completely dissolved) (mesitylene, 25° C.): ≥ 0.03 wt %
- solubility (solute concentration completely dissolved) (ortho-dichlorobenzene, 25° C.): ≥ 0.03 wt %
- solubility (solute concentration completely dissolved) (ortho-dichlorobenzene, 60° C.): ≥ 0.1 wt %
- solubility (solute concentration completely dissolved) (ortho-dichlorobenzene, 100° C.): ≥ 0.5 wt %
- solubility (solute concentration completely dissolved) (toluene, 25° C.): ≥ 0.03 wt %

Molecule: CCCCCCCCCCCCCCCCCCc1cc(-c2ccc(-c3c4c(c(-c5ccc(-c6ccc(C#N)c(CCCCCCCCCCCCCCCCCC)c6)s5)c5nsnc35)N=S=N4)s2)ccc1C#N [Compound (C20), 4,8-bis[5-(4-cyano-3-octadecylphenyl)thiophene-2-yl]benzo[1,2-c:4,5-c′]bis[1,2,5]thiadiazole]
- solubility (solute concentration completely dissolved) (1-methylnaphthalene, 100° C.): ≥ 0.3 wt %
- solubility (solute concentration completely dissolved) (chlorobenzene, 100° C.): ≥ 0.3 wt %
- solubility (solute concentration completely dissolved) (chloroform, 60° C.): ≥ 0.1 wt %
- solubility (solute concentration completely dissolved) (ortho-dichlorobenzene, 80° C.): ≥ 0.3 wt %

Molecule: FC(F)(F)Sc1cccc(-c2ccc(-c3c4c(c(-c5ccc(-c6cccc(SC(F)(F)F)c6)s5)c5nsnc35)N=S=N4)s2)c1 [Compound (C6), 4,8-bis[5-(3-((trifluoromethyl)thio)phenyl)thiophene-2-yl]benzo[1,2-c:4,5-c′]bis[1,2,5]thiadiazole]
- solubility (solute concentration completely dissolved) (chlorobenzene, 80° C.): ≥ 0.1 wt %
- solubility (solute concentration completely dissolved) (chlorobenzene, 130° C.): ≥ 0.5 wt %
- solubility (solute concentration completely dissolved) (mesitylene, 80° C.): ≥ 0.1 wt %
- solubility (solute concentration completely dissolved) (mesitylene, 130° C.): ≥ 0.3 wt %
- solubility (solute concentration completely dissolved) (ortho-dichlorobenzene, 80° C.): ≥ 0.1 wt %
- solubility (solute concentration completely dissolved) (ortho-dichlorobenzene, 130° C.): ≥ 0.5 wt %
- solubility (solute concentration completely dissolved) (toluene, 80° C.): ≥ 0.1 wt %

Molecule: CCCCCCCCc1ccc(-c2ccc(-c3c4c(c(-c5ccc(-c6ccc(CCCCCCCC)c(C(F)(F)F)c6)s5)c5nsnc35)N=S=N4)s2)cc1C(F)(F)F [Compound (C25), 4,8-bis[5-(4-octyl-3-(trifluoromethyl)phenyl)thiophene-2-yl]benzo[1,2-c:4,5-c′]bis[1,2,5]thiadiazole]
- solubility (solute concentration completely dissolved) (1-methylnaphthalene, 60° C.): ≥ 0.3 wt %
- solubility (solute concentration completely dissolved) (chloroform, 60° C.): ≥ 0.2 wt %
- solubility (solute concentration completely dissolved) (mesitylene, 60° C.): ≥ 0.3 wt %
- solubility (solute concentration completely dissolved) (ortho-dichlorobenzene, 60° C.): ≥ 0.3 wt %
- solubility (solute concentration completely dissolved) (toluene, 60° C.): ≥ 0.3 wt %

Molecule: CCCCCCCCc1cc(-c2ccc(-c3c4c(c(-c5ccc(-c6ccc(C#N)c(CCCCCCCC)c6)s5)c5nsnc35)N=S=N4)s2)ccc1C#N [Compound (C14), 4,8-bis[5-(4-cyano-3-octylphenyl)thiophene-2-yl]benzo[1,2-c:4,5-c′]bis[1,2,5]thiadiazole]
- solubility (solute concentration completely dissolved) (chlorobenzene, 80° C.): ≥ 0.3 wt %
- solubility (solute concentration completely dissolved) [1]: ≥ 0.1 wt %
- solubility (solute concentration completely dissolved) (chloroform, 60° C.): ≥ 0.2 wt %
- solubility (solute concentration completely dissolved) (ortho-dichlorobenzene, 60° C.): ≥ 0.3 wt %
- solubility (solute concentration completely dissolved) (para-chlorotoluene, 100° C.): ≥ 0.3 wt %

Molecule: CCCCCCCCCCCCc1ccc(-c2ccc(-c3c4c(c(-c5ccc(-c6ccc(CCCCCCCCCCCC)c(C(F)(F)F)c6)s5)c5nsnc35)N=S=N4)s2)cc1C(F)(F)F [Compound (C28), 4,8-bis[5-(4-dodecyl-3-(trifluoromethyl)phenyl)thiophene-2-yl]benzo[1,2-c:4,5-c′]bis[1,2,5]thiadiazole]
- solubility (solute concentration completely dissolved) (1-methylnaphthalene, 100° C.): ≥ 0.3 wt %
- solubility (solute concentration completely dissolved) (chloroform, 80° C.): ≥ 0.1 wt %
- solubility (solute concentration completely dissolved) (mesitylene, 100° C.): ≥ 0.3 wt %
- solubility (solute concentration completely dissolved) (ortho-dichlorobenzene, 80° C.): ≥ 0.3 wt %
- solubility (solute concentration completely dissolved) (toluene, 100° C.): ≥ 0.3 wt %

Molecule: CCCCCCc1ccc(-c2ccc(-c3c4c(c(-c5ccc(-c6ccc(CCCCCC)c(C(F)(F)F)c6)s5)c5nsnc35)N=S=N4)s2)cc1C(F)(F)F [Compound (C9), 4,8-bis[5-(4-hexyl-3-(trifluoromethyl)phenyl)thiophene-2-yl]benzo[1,2-c:4,5-c′]bis[1,2,5]thiadiazole]
- solubility (solute concentration completely dissolved) (chlorobenzene, 25° C.): ≥ 0.03 wt %
- solubility (solute concentration completely dissolved) (mesitylene, 25° C.): ≥ 0.03 wt %
- solubility (solute concentration completely dissolved) (mesitylene, 60° C.): ≥ 0.1 wt %
- solubility (solute concentration completely dissolved) (mesitylene, 80° C.): ≥ 0.5 wt %
- solubility (solute concentration completely dissolved) (ortho-dichlorobenzene, 25° C.): ≥ 0.03 wt %
- solubility (solute concentration completely dissolved) (toluene, 25° C.): ≥ 0.03 wt %
- solubility (solute concentration completely dissolved) (toluene, 60° C.): ≥ 0.1 wt %
- solubility (solute concentration completely dissolved) (toluene, 80° C.): ≥ 0.5 wt %

Molecule: CCCCCCCCCCc1cc(-c2ccc(-c3c4c(c(-c5ccc(-c6ccc(C#N)c(CCCCCCCCCC)c6)s5)c5nsnc35)N=S=N4)s2)ccc1C#N [Compound (C16), 4,8-bis[5-(4-cyano-3-decylphenyl)thiophene-2-yl]benzo[1,2-c:4,5-c′]bis[1,2,5]thiadiazole]
- solubility (solute concentration completely dissolved) (chlorobenzene, 80° C.): ≥ 0.3 wt %
- solubility (solute concentration completely dissolved) (chloroform, 60° C.): ≥ 0.2 wt %
- solubility (solute concentration completely dissolved) (ortho-dichlorobenzene, 80° C.): ≥ 0.3 wt %
- solubility (solute concentration completely dissolved) (para-chlorotoluene, 80° C.): ≥ 0.3 wt %

Molecule: CCCCCCc1cc(-c2ccc(-c3c4c(c(-c5ccc(-c6cc(CCCCCC)c(C#N)c(CCCCCC)c6)s5)c5nsnc35)N=S=N4)s2)cc(CCCCCC)c1C#N [Compound (C22), 4,8-bis[5-(4-cyano-3,5-dihexylphenyl)thiophene-2-yl]benzo[1,2-c:4,5-c′]bis[1,2,5]thiadiazole]
- solubility (solute concentration completely dissolved) (1-methylnaphthalene, 25° C. (room temperature)): ≥ 0.1 wt %
- solubility (solute concentration completely dissolved) [1]: ≥ 0.1 wt %
- solubility (solute concentration completely dissolved) (ortho-dichlorobenzene, 25° C.): ≥ 0.1 wt %
- solubility (solute concentration completely dissolved) (toluene, 25° C.): ≥ 0.3 wt %

Molecule: 4,8-bis[5-(4-cyano-3-(2-methylhexyl)phenyl)thiophene-2-yl]benzo[1,2-c:4,5-c′]bis[1,2,5]thiadiazole [Compound (C29)]
- solubility (solute concentration completely dissolved) (1-methylnaphthalene, 60° C.): ≥ 0.3 wt %
- solubility (solute concentration completely dissolved) (chloroform, 60° C.): ≥ 0.1 wt %

Molecule: CCCCCCCCCc1cc(-c2ccc(-c3c4c(c(-c5ccc(-c6ccc(C#N)c(CCCCCCCCC)c6)s5)c5nsnc35)N=S=N4)s2)ccc1C#N [Compound (C15), 4,8-bis[5-(4-cyano-3-nonylphenyl)thiophene-2-yl]benzo[1,2-c:4,5-c′]bis[1,2,5]thiadiazole]
- solubility (solute concentration completely dissolved) (chlorobenzene, 60° C.): ≥ 0.3 wt %
- solubility (solute concentration completely dissolved) [1]: ≥ 0.1 wt %
- solubility (solute concentration completely dissolved) (chloroform, 60° C.): ≥ 0.2 wt %
- solubility (solute concentration completely dissolved) (ortho-dichlorobenzene, 60° C.): ≥ 0.3 wt %
- solubility (solute concentration completely dissolved) (para-chlorotoluene, 80° C.): ≥ 0.3 wt %

Molecule: CCCCCCCCCCCCc1cc(-c2ccc(-c3c4c(c(-c5ccc(-c6ccc(C(F)(F)F)c(CCCCCCCCCCCC)c6)s5)c5nsnc35)N=S=N4)s2)ccc1C(F)(F)F [Compound (C27), 4,8-bis[5-(3-dodecyl-4-(trifluoromethyl)phenyl)thiophene-2-yl]benzo[1,2-c:4,5-c′]bis[1,2,5]thiadiazole]
- solubility (solute concentration completely dissolved) (1-methylnaphthalene, 60° C.): ≥ 0.3 wt %
- solubility (solute concentration completely dissolved) (chloroform, 60° C.): ≥ 0.1 wt %
- solubility (solute concentration completely dissolved) (mesitylene, 60° C.): ≥ 0.3 wt %
- solubility (solute concentration completely dissolved) (ortho-dichlorobenzene, 60° C.): ≥ 0.3 wt %
- solubility (solute concentration completely dissolved) (toluene, 60° C.): ≥ 0.3 wt %

Molecule: CCCCCCCCCCC(F)(F)c1cccc(-c2ccc(-c3c4c(c(-c5ccc(-c6cccc(C(F)(F)CCCCCCCCCC)c6)s5)c5nsnc35)N=S=N4)s2)c1 [Compound (C4), 4,8-bis[5-(3-(1,1-difluoroundecyl)phenyl)thiophene-2-yl]benzo[1,2-c:4,5-c′]bis[1,2,5]thiadiazole]
- solubility (solute concentration completely dissolved) (chlorobenzene, 25° C.): ≥ 0.03 wt %
- solubility (solute concentration completely dissolved) (mesitylene, 25° C.): ≥ 0.03 wt %
- solubility (solute concentration completely dissolved) (mesitylene, 60° C.): ≥ 0.1 wt %
- solubility (solute concentration completely dissolved) (mesitylene, 100° C.): ≥ 0.5 wt %
- solubility (solute concentration completely dissolved) (ortho-dichlorobenzene, 25° C.): ≥ 0.03 wt %
- solubility (solute concentration completely dissolved) (toluene, 25° C.): ≥ 0.03 wt %
- solubility (solute concentration completely dissolved) (toluene, 60° C.): ≥ 0.1 wt %
- solubility (solute concentration completely dissolved) (toluene, 100° C.): ≥ 0.5 wt %

Molecule: CCCCCCCCc1ccc(-c2ccc(-c3c4c(c(-c5ccc(-c6ccc(CCCCCCCC)c(C#N)c6)s5)c5nsnc35)N=S=N4)s2)cc1C#N [Compound (C26), 4,8-bis[5-(3-cyano-4-octylphenyl)thiophene-2-yl]benzo[1,2-c:4,5-c′]bis[1,2,5]thiadiazole]
- solubility (solute concentration completely dissolved) (1-methylnaphthalene, 60° C.): ≥ 0.3 wt %
- solubility (solute concentration completely dissolved) [1]: ≥ 0.2 wt %
- solubility (solute concentration completely dissolved) (mesitylene, 80° C.): ≥ 0.3 wt %
- solubility (solute concentration completely dissolved) (ortho-dichlorobenzene, 60° C.): ≥ 0.3 wt %
- solubility (solute concentration completely dissolved) (toluene, 80° C.): ≥ 0.3 wt %

Molecule: CCCCCCc1ccc(-c2ccc(-c3c4c(c(-c5ccc(-c6ccc(CCCCCC)c(OC(F)(F)F)c6)s5)c5nsnc35)N=S=N4)s2)cc1OC(F)(F)F [Compound (C11), 4,8-bis[5-(4-hexyl-3-(trifluoromethoxy)phenyl)thiophene-2-yl]benzo[1,2-c:4,5-c′]bis[1,2,5]thiadiazole]
- solubility (solute concentration completely dissolved) (chlorobenzene, 60° C.): ≥ 0.1 wt %
- solubility (solute concentration completely dissolved) (chlorobenzene, 80° C.): ≥ 0.5 wt %
- solubility (solute concentration completely dissolved) (mesitylene, 80° C.): ≥ 0.1 wt %
- solubility (solute concentration completely dissolved) (mesitylene, 100° C.): ≥ 0.5 wt %
- solubility (solute concentration completely dissolved) (ortho-dichlorobenzene, 60° C.): ≥ 0.1 wt %
- solubility (solute concentration completely dissolved) (ortho-dichlorobenzene, 80° C.): ≥ 0.5 wt %
- solubility (solute concentration completely dissolved) (toluene, 60° C.): ≥ 0.1 wt %
- solubility (solute concentration completely dissolved) (toluene, 80° C.): ≥ 0.5 wt %
